{"source": "patent US9763915B2", "about": "“Adjuvants in anti-cancer chemotherapy” (PharmOxaco SáRL, priority 2013, dated 2017)", "key": {"[1]": {"system": "dogs", "settings": "Brewer et al. 1994; cited from earlier work"}, "[2]": {"system": "rats", "test": "Further testing in a group of rats (mortality)", "settings": "40 mg/kg/day"}, "[3]": {"system": "rats", "settings": "Brewer et al. 1994; cited from earlier work"}, "[4]": {"system": "CD® rats", "test": "Two-week toxicity study in CD rats", "type": "in vivo", "description": "As a bellwether, the toxicity of trioxane T7 has been evaluated and compared with that of artemether in CD® rats following two weeks of oral administration (gavage) and intramuscular injection, respectively. Trioxane T7 was administered at doses of 0, 15, 30, and 60 mg/kg/day in Lipomul® emulsion, while artemether was dosed at 0, 10, 20, and 40 mg/kg/day."}, "[5]": {"system": "MDA-468 breast cancer cell line", "test": "Annexin V apoptosis assay, fast proliferating MDA-468 breast cancer cells", "settings": "MDA-468, 48 hours, vehicle baseline 13-18%", "source_text": "(§2) The same experimental set-up was also utilized to test the synergistic capacity of trioxane T59 with imatinib.\n(§3) The test read-out was the Annexin V apoptosis assay kit from Becton-Dickinson, which detects the presence of the Annexin V protein on the surface of cells undergoing apoptosis and positivity toward propidium iodide for dead cells."}, "[6]": {"system": "MCF-7 breast cancer cell line", "test": "Annexin V apoptosis assay, poorly proliferating MCF-7 breast cancer cells", "settings": "MCF-7, 48 hours, vehicle baseline 13-18%", "source_text": "as §2, §3"}, "[7]": {"system": "human follicular lymphoma cell line (DoHH2)", "test": "Annexin V apoptosis assay, follicular lymphoma cell line DoHH2", "type": "cell-based", "settings": "DoHH2, 48 hours, 25 μM alone", "description": "(§1) Next the cells were cultivated in the same way, but in the combined presence of dasatinib (25 μM) and the individual trioxanes T16, T45, and T7 in concentrations of 1.0 and 10 μM (see Tables below). As mentioned above, the Annexin V apoptosis assay was used to detect the Annexin V protein on cells undergoing apoptosis. Dead cells (post-apoptopic) were determined by positivity toward propidium iodide. The percentages of apoptopic, post-apoptopic cells, and their total are shown for each test. […] Synergy is noted as moderate (*), high (**), or exceptionally high (***).\nHuman Follicular Lymphoma (DoHH2)"}, "[8]": {"system": "human Burkitt's lymphoma cell line (Raji)", "test": "Annexin V apoptosis assay, Burkitt's lymphoma cell line Raji", "type": "cell-based", "settings": "48 hours, 25 μM alone", "description": "as §1\nHuman Burkitt's Lymphoma (Raji)"}}, "note": "Values joined by “and” are separate entries in the source; they are usually repeats but may differ in a detail not shown here. Identical values can stand only once."}
{"smiles": "CO[C@H]1O[C@@H]2O[C@@]3(C)CC[C@H]4[C@H](C)CC[C@@H]([C@H]1C)[C@@]24OO3", "note": "[artemether]", "values": [{"measurement": "reported toxicity", "setting": "[1]", "result": "neurotoxicity"}, {"measurement": "mortality", "setting": "[2]", "result": "killed most of the rats"}, {"measurement": "reported toxicity", "setting": "[3]", "result": "neurotoxicity"}, {"measurement": "toxic effects", "setting": "[4]; two weeks intramuscular injection, 10, 20, 40 mg/kg/day", "result": "CNS excitability, neuronal chromatolysis, and gliosis in the brain stem"}, {"measurement": "toxic effects at mid-dose", "setting": "[4]; two weeks intramuscular injection, mid-dose (of 10, 20, 40 mg/kg/day)", "result": "neurotoxic manifestations were observed, including hematoxicity and hepatotoxicity"}]}
{"smiles": "Oc1ccc(C=Cc2cc(O)cc(O)c2)cc1", "note": "[Resveratrol, resveratrol]", "values": [{"measurement": "percentage of dead cells (dead+apoptotic)", "setting": "[5]; 1 μM alone", "result": 11.30, "unit": "%"}, {"measurement": "percentage of dead cells (dead+apoptotic)", "setting": "[6]; 1 μM alone", "result": 16.05, "unit": "%"}]}
{"smiles": "Cc1ccc(NC(=O)c2ccc(CN3CCN(C)CC3)cc2)cc1Nc1nccc(-c2cccnc2)n1", "note": "[Imatinib, imatinib]", "values": [{"measurement": "percentage of dead cells (dead+apoptotic)", "setting": "[5]; 10 μM alone", "result": "13.60% and 13.16%"}, {"measurement": "percentage of dead cells (dead+apoptotic)", "setting": "[6]; 10 μM alone", "result": "14.05% and 14.15%"}]}
{"smiles": "Cc1nc(Nc2ncc(C(=O)Nc3c(C)cccc3Cl)s2)cc(N2CCN(CCO)CC2)n1", "note": "[Dasatinib, dasatinib]", "values": [{"measurement": "Apoptopic Cells, in %", "setting": "[7]", "result": 4.58, "unit": "%"}, {"measurement": "Post-apoptopic Cells, in %", "setting": "[7]", "result": 11.76, "unit": "%"}, {"measurement": "Total Dead Cells, in %", "setting": "[7]; vehicle baseline 13-18%", "result": 16.34, "unit": "%"}, {"measurement": "Apoptopic Cells, in %", "setting": "[8]", "result": 7.9, "unit": "%"}, {"measurement": "Post-apoptopic Cells, in %", "setting": "[8]", "result": 15.18, "unit": "%"}, {"measurement": "Total Dead Cells, in %", "setting": "[8]; vehicle baseline 13-18%", "result": 23.15, "unit": "%"}]}
